{"source": "patent US20110059154A1", "about": "“CCR5 ANTAGONISTS AS PROPHYLACTICS FOR PREVENTING HIV INFECTION AND METHODS OF INHIBITING TRANSMISSION OF SAME” (priority 2008, published 2011)", "key": {"[1]": {"test": "Initial solubility assessment in solvents useful in making vaginal devices", "format": "physicochemical", "from_the_text": "Initial solubility assessments were made of Compounds 28A, 23 and 5L to evaluate compatibility in various solvents useful in making vaginal devices."}, "[2]": {"test": "Compound toxicity, MTT dye reduction", "format": "cell-based", "settings": "human, TZM-bL cells, mean ± D (n independent experiments), read-out: Cytotoxicity CC50 (TZM-bL)", "description": "Determination of compound toxicity. The viability of cells (TZM-bI) and following treatment with the compound was determined by the principle of MTT dye reduction (see references cited in Fletcher et. al.). All data are expressed as the percentage of viability for compound-treated wells compared to untreated cell control wells, and the 50% cytotoxic concentration (CC50) is defined as the concentration of the drug at which the cell/tissue viability was reduced to 50% of the drug-free control value."}, "HIV-1BaL": {"system": "HIV-1BaL", "test": "microbe, parasite or virus in culture", "format": "cell-based", "settings": "Human immunodeficiency virus 1, TZM-bl, read-out: Inhibition of HIV Infection (TZM-bL cells using luciferase reporter) IC50-RS"}, "[3]": {"test": "Competition slurry experiment, relative thermodynamic stability of forms 1 and 2", "format": "physicochemical", "settings": "slurry in 2-propanol and in MTBE, seeded with both forms, 1 week; PXRD and DSC", "description": "To assess the relative thermodynamic stability of forms 1 and 2, a competition slurry experiment was performed. In this experiment, the as received amorphous material was slurried in one vial containing 2-propanol and another containing MTBE. Seeds of both form 1 and form 2 were added to both vials and stirring continued for 1 week. The solid material was filtered from each vial and analyzed with PXRD and DSC."}, "[4]": {"test": "Thermogravimetric analysis (TGA), thermal stability", "format": "physicochemical", "description": "Thermogravimetric analysis (TGA) was conducted with a TGA Q500 from TA instruments. A typical experiment involved heating the material in a platinum pan under a nitrogen purge from 25° C. to 350° C. at 10° C. per minute. Data was analyzed using the Universal using the Universal Analysis software program from TA Instruments.\nThermogravimetric analysis (TGA) was performed on each form to evaluate the thermal stability and presence of any volatiles in the sample (FIG. 3). The onset of thermal degradation is estimated using the derivative of weigh loss curve and was measured as 276° C. and 270° C. for forms 1 and 2 respectively."}}, "note": "Where a name gives a salt, the structure may show the parent alone."}
{"molecule": "CCC[C@@H](c1ccc(C(F)(F)F)cc1)N1CCN(C2(C)CCN(C(=O)c3c(C)ncnc3C)CC2)C[C@@H]1C", "note": "[Compound 28A]", "values": [{"measurement": "Solubility (percent in parentheses)", "setting": "[1]; PEG 400, 1.12 g/cm^3", "result": "≥ 3.4", "unit": "%"}, {"measurement": "Solubility (percent in parentheses)", "setting": "[1]; PG (propyleneglycol), 1.038 g/cm^3", "result": "≥ 3.6", "unit": "%"}, {"measurement": "solubility", "setting": "[1]; organic solvent or mixture, PEG 400", "result": "≥ 39", "unit": "mg/mL"}, {"measurement": "solubility", "setting": "[1]; organic solvent or mixture, PG (propyleneglycol)", "result": "≥ 38.4", "unit": "mg/mL"}, {"measurement": "solubility", "setting": "[1]; pH 4.4, aqueous buffer, pH 4.4 citrate buffer", "result": "≥ 11.4", "unit": "mg/mL"}, {"measurement": "solubility", "setting": "[1]; pH 7.5, aqueous buffer, pH 7.5 phosphate buffer", "result": "< 0.33", "unit": "mg/mL"}, {"measurement": "solubility", "setting": "[1]; water, DI H20", "result": "≥ 3.85", "unit": "mg/mL"}]}
{"molecule": "CO/N=C(\\c1ccc(Br)cc1)C1CCN(C2(C)CCN(C(=O)c3c(C)ncnc3C)CC2)CC1", "note": "[Compound 5L Tartrate]", "values": [{"measurement": "CC50", "setting": "[2]", "result": "476 ± 117", "unit": "µM"}, {"measurement": "IC50", "setting": "HIV-1BaL", "result": "0.119 ± 0.0924", "unit": "µM"}]}
{"molecule": "CO/N=C(\\c1ccc(Br)cc1)C1CCN(C2(C)CCN(C(=O)c3c(C)ncnc3C)CC2)CC1", "note": "[form 1]", "values": [{"measurement": "relative thermodynamic stability of forms 1 and 2", "setting": "[3]", "result": "more thermodynamically stable form"}, {"measurement": "onset of thermal degradation", "setting": "[4]", "result": 276, "unit": "°C"}]}
